Source: patent US20090264384A1, “INDOLE, BENZIMIDAZOLE, AND BENZOLACTAM BORONIC ACID COMPOUNDS, ANALOGS THEREOF AND METHODS OF USE THEREOF” (Nuada, Inc., priority 2004, published 2009)

What was measured:
[1] = Various In Vitro Cell Biology Assays (Example 41, Tables 23-26); format: cell-based; conditions: PBMC, 24 h, IL-1 □ secretion (h) (PBMC), LPS 1 μg/ml, 24 h; 3×10^−6 M; read-out: % Inhibition of Control Values
Description: In each experiment, the respective reference compound was tested concurrently with the test compounds in order to assess the assay suitability. It was tested at several concentrations (for IC50 value determination).
The test compounds were assayed at 3×10^−6 M.
Results. The results are expressed as a percent of control values and as a percent inhibition of control values obtained in the presence of the test compounds.
The IC50 values (concentration causing a half-maximal inhibition of control values) and Hill coefficients (nH) were determined by non-linear regression analysis of the inhibition curves using Hill equation curve fitting, a summary of the data is shown in Table 26. The IC50 value for each reference compound is indicated was determined (data not shown) and was within accepted limits of the historic average ±0.5 log units.

[2] = tested on: colitis provoked by trinitrobenzene sulphonic acid (TNBS); experiment: Rat model of colitis provoked by TNBS, 3 days, treatment from Day −1 (CCI-7308); format: in vivo; conditions: for attenuation of TNBS-induced fall in body weight (% change in body weight at Day 0) / reduction in area of macroscopic colonic injury / reduction in colonic MPO activity / reduction in colon weight / reduction in colonic TNF-α levels: vs CMC group; for reduction in area of macroscopic colonic injury: 72 h after TNBS
Text: In the study, colonic macroscopic injury has been assessed, as has colonic weight as a reflection of colonic oedema, along with determination of MPO activity (Bradley et al, 1982) as an index of white cell infiltration for the evaluation of tissue injury. The methods and protocol used were substantially similar to those in Example 39, with some differences described below. TNBS Challenge—Male Wistar rats (270-330 g) were randomised into groups of 10-11 before commencement of the study. The following primary parameters were measured in the study: In addition, the weight of the colonic segment was assessed as an indirect and non-specific marker of oedema. The body weight of the animals was also determined and expressed as % change from the day of challenge. Treatments. All challenged groups were dosed orally twice daily from Day −1. The groups for study were: Colon homogenates for cytokine measurements. […] Tissue homogenates were lysed for 30 min. on ice, and then centrifuged (10 min., 14, 000×g). The aliquots of the supernatant were stored at −20° C. until use (Ten Hove et al., 2001). Tumour Necrosis Factor-a Activity. The TNF-α levels were determined with quantitative TNF-α solid-phase Enzyme Linked ImmunoSorbent Assay (ELISA), which is based on the sandwich principle (HyCult biotechnology b. V;. Cat number: […] At the end of the ELISA assay, the samples were measured spectrophotometrically (Benchmark Microplate reader, Bio-Rad Lab; λ=450 nm). The samples were diluted 2 or 4 times with the sample buffer included in the kit. The TNF-α values were expressed as pg/mg protein. This commercially available kit (Hycult Biotechnology b.v. Uden, The Netherlands. Catalogue number: […]

[3] = tested on: chronic colitis provoked by trinitrobenzene sulphonic acid (TNBS); experiment: Rat model of chronic colitis provoked by TNBS over 14 days, treatment from Day 1; format: in vivo; conditions: for macroscopic Damage Score / reduction in colon weight / reduction in colonic MPO activity / reduction in colonic TNF-α levels / reduction in colonic lesion area (% of the total area measured): Day 14; for reduction in colon weight / reduction in colonic MPO activity / reduction in colonic TNF-α levels / reduction in colonic lesion area (% of the total area measured) / attenuation of TNBS-induced fall in body weight (% change of body weight at Day −1): vs CMC group; for attenuation of TNBS-induced fall in body weight (% change of body weight at Day −1): over 14 days
Text: In the chronic model of colitis, assessment of the colonic inflammation is made 14 days or longer, after the intracolonic challenge with TNBS (Boughton-Smith et al, 1988a, 1988b; Wallace et al, 1989; Rachmilewitz et al, 1989; Wallace and Keenan, 1990; Ameho et al, 1987; Sans et al, 1999; Sun et al, 2001; Maric et al, 2003; Moreels et al, 2004; Gonzalez et al, 2004). This model allows treatment with experimental agents to commence following the establishment of the colonic injury, typically 24 hours after the TNBS challenge (Galvez et al, 2000, Villegas, 2003, Gonzalez et al, 2004). The model should therefore identify the ability of the experimental compounds to accelerate the diminution of the inflammatory response and to promote healing of the colonic lesions. This model thus has relevance additional to the acute model, as the clinical correlate is the therapeutic intervention in patients with existing IBD not in remission or with flare-up, to reduce the crisis. This contrasts with the acute TNBS model where the compounds are administered one or two days prior to challenge, the clinical correlate being the use of prophylactic therapy to prevent flare-up and maintain remission in IBD patients.
In this current study, the low intracolonic challenge concentration of TNBS used in the acute studies was also used for the chronic study over a 14 day period. This concentration and timing was based on the findings from pilot studies where a range of concentrations of TNBS and treatment conditions were evaluated over a 14 day period. […].
The methods and protocol used were substantially similar to those in Example 39-40, with some differences described below.
TNBS Challenge. Male Wistar rats (average body weight, 210 g) were randomised into groups before commencement of the study. In all groups, including the non-challenged and non-treated absolute control group, food was withdrawn for 12 h before TNBS administration (i.e. overnight on Day −1), but the rats were allowed free access to drinking water.
On the morning of the day of challenge (Day 0, between 9.00 and 1 1.00 a.m.), the rats were transiently anaesthetised with ether and the TNBS solution (10 mg in 0.25 ml of 50% ethanol) was instilled approximately 6-8 cm into the colon using a soft plastic catheter inserted in the rat rectum. The rats were allowed to recover with free access to food and drinking water. At the end of the experiment, on the morning of Day 14, between 9.00 and 11.00), the colon was dissected, and the distal 8 cm photographed and immediately processed or stored appropriately for subsequent analyses.
The following primary parameters were measured in the study: macroscopic scoring of distal 8 cm of colon; myeloperoxidase levels in segments of distal 8 cm of colon; TNF-α levels in segments of distal 8 cm of colon.
In addition, the weight of the standard colonic segment was assessed as an indirect and non-specific marker of oedema. The body weight of the animals was also determined each evening of the study, starting on Day-1, and also on the morning of Day 14. The data is shown graphically as the % change from the weight on Day-1, prior to challenge.
Treatments. The TNBS challenged groups for study were: (a) Vehicle control 0.5% carboxy methyl cellulose (CMC) p.o., twice daily from Day; (b) CCI-7506 25 mg/kg, p.o., twice daily from Day 1 (50 mg/kg/day total); (c) CCI-7506 50 mg/kg, p.o., twice daily from Day 1 (100 mg/kg/day total); (d) CCI-7507 12.5 mg/kg, p.o., twice daily from Day 1 (25 mg/kg/day total); (e) CCI-7507 25 mg/kg, p.o., twice daily from Day 1(50 mg/kg/day total); […]; (g) Infliximab 3 mg/kg, single slow i.v. injection, on Day 1 and Day7.
The experimental compounds that were administered orally were given twice a day from Day 1, i.e. 24 h following TNBS administration, for the remainder of the 14 day experimental period. Infliximab was administered by slow i.v. injection of Day 1 and on Day 7. […]

[4] = 4 mg/kg/day p.o. in divided doses
[5] = 20 mg/kg/day p.o. in divided doses
[6] = 100 mg/kg/day p.o. in divided doses

In the case of COc1ccc(-c2nc3ccccc3n2CCCCCB(O)O)cc1 [CCI-7308], the inhibition at 3 µM [1] is reported as 68%, the “attenuation of TNBS-induced fall in body weight (% change in body weight at Day 0)” value (from here on “attenuation … (% change in body weight at Day 0)”) ([2]; 4 mg/kg/day p.o. in divided doses b.i.d.) is reported as “significantly different from the challenged CMC control group on Day 1” and the “reduction in area of macroscopic colonic injury” value (“reduction in area” for short) [2, 4] is reported as “did not reach significance”. The “reduction in colonic MPO activity” value [2, 4] was “significant (P<0.001) reduction in colonic MPO levels at all three dose levels”, the “attenuation … (% change in body weight at Day 0)” value ([2]; 20 mg/kg/day p.o. in divided doses b.i.d.) was “significantly different from the CMC group on Days 1, 2 and 3” and the “reduction in area” value [2, 5] was “statistically significant”. For the same molecule, the “reduction in colon weight” value [2, 5] was “statistically significant”, the “reduction in colonic MPO activity” value [2, 5] was “significant (P<0.001) reduction in colonic MPO levels at all three dose levels” and the “reduction in colonic TNF-α levels” value [2, 5] was “achieving significance”. For the same molecule, the “attenuation … (% change in body weight at Day 0)” value ([2]; 100 mg/kg/day p.o. in divided doses b.i.d.) was “preventing the fall in body weight on all 3 days post-challenge”, the “reduction in area” value [2, 6] was “statistically significant” and the “reduction in colon weight” value [2, 6] was “statistically significant”. The “reduction in colonic MPO activity” value [2, 6] was “significant (P<0.001) reduction in colonic MPO levels at all three dose levels”, the “reduction in colonic TNF-α levels” value [2, 6] was “achieving significance” and the “relative potency versus sulfasalazine in reducing macroscopic injury” value ([2]; preliminary indication, from comparison of molecular weights) was roughly 2.5 times.
In the case of COc1ccc(-c2nc3ccccc3n2CCCCCB(O)O)cc1 [CCI-7507], the “macroscopic Damage Score” value ([3]; 25 mg/kg/day p.o. from Day 1) is reported as “reduced the damage score”, the “reduction in colon weight” value ([3]; 25 mg/kg/day p.o. from Day 1) is reported as “significantly reduced the colonic weight of the standard segment at both doses” and the “reduction in colonic MPO activity” value ([3]; 25 mg/kg/day p.o. from Day 1) is reported as “significant and dose-dependent fall in the elevated MPO activity at both dose levels”. The “reduction in colonic TNF-α levels” value ([3]; 25 mg/kg/day p.o. from Day 1) was “caused a significant reduction in the elevated levels of TNF-α”, the “reduction in colonic lesion area (% of the total area measured)” value ([3]; 25 mg/kg/day p.o. from Day 1) was “statistically significant for both doses” and the “attenuation of TNBS-induced fall in body weight (% change of body weight at Day −1)” value ([3]; 25 mg/kg/day p.o. in divided doses from Day 1) was “significantly different from that in the CMC challenged group (P<0.05) on Days 2, 3, 4, 8, 9 and 10 post-challenge”. For the same molecule, the “macroscopic Damage Score” value ([3]; 50 mg/kg/day p.o. from Day 1) was “reduced the damage score”, the “reduction in colon weight” value ([3]; 50 mg/kg/day p.o. from Day 1) was “significantly reduced the colonic weight of the standard segment at both doses” and the “reduction in colonic MPO activity” value ([3]; 50 mg/kg/day p.o. from Day 1) was “significant and dose-dependent fall in the elevated MPO activity at both dose levels”. For the same molecule, the “reduction in colonic TNF-α levels” value ([3]; 50 mg/kg/day p.o. from Day 1) was “caused a significant reduction in the elevated levels of TNF-α”, the “reduction in colonic lesion area (% of the total area measured)” value ([3]; 50 mg/kg/day p.o. from Day 1) was “statistically significant for both doses” and the “attenuation of TNBS-induced fall in body weight (% change of body weight at Day −1)” value ([3]; 50 mg/kg/day p.o. in divided doses from Day 1) was “significantly different form the CMC group on all days from Day 2 to 10”.
